Laboratory results taken from patent publication US5624923A, “Tricyclic diazepine vasopressin antagonists and oxytocin antagonists” (priority 1995, dated 1997).
pIC50: −log10 of the molar value.

Experiments:
Rat Hepatic V1 Receptors = biological target: T1, Rat Hepatic V1 Receptors (Rattus norvegicus, UniProt P30560); experiment: Binding Assay to Rat Hepatic V1 Receptors; settings: for pIC50: rat liver membranes, read-out: V1 IC50; for inhibition at 10 µM: 2 h, rat
T1 construct: Rat liver plasma membranes expressing the vasopressin V1 receptor subtypes; from tissue; host or cells: rat liver plasma membranes

Vasopressin V2 = Vasopressin V2 Antagonist Activity in Conscious Hydrated Rats; type: in vivo, rat; settings: 10 mg/kg orally, AVP 0.4 μg/kg i.p.
How it was run: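 Four-hour urine output, osmolality and electrolytes (Na+, K+, Cl−) recorded in water-loaded rats (30 mL/kg deionized water orally) given AVP i.p. at 0.4 μg/kg. Test compounds were given orally at 0.1–100 mg/kg 1 h before AVP; 2–4 rats per compound.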

oxytocin receptors = biological target: T2, oxytocin receptors (Rattus norvegicus, UniProt P70536); experiment: Oxytocin Receptor Binding; settings: for inhibition at 10 µM: [3H]oxytocin; for pIC50: 1.0 nM [3H]oxytocin
T2 construct: The uteri are dissected out, cleaned of fat and connective tissues; from tissue; host or cells: uterus of DES-treated female Sprague-Dawley rats
T2 sequence (P70536 1-388): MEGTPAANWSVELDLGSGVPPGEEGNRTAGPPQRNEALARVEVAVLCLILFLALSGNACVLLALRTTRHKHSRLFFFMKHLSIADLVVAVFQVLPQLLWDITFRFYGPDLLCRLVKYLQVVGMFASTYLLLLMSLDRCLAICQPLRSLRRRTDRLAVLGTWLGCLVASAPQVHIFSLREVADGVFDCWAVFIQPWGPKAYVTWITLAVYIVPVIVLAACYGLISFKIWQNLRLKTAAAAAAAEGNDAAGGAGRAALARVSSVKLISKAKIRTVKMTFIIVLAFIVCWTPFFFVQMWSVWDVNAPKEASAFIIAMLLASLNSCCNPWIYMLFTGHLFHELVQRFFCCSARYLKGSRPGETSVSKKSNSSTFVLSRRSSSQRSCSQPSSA
How it was run: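 IC50 is the concentration displacing 50% of 1.0 nM [3H]OT, incubated 60 min at 22 °C in pH 7.4 Tris/MgCl2 buffer plus protease inhibitors, then filtered. Receptor source: uterine membranes from rats given 0.3 mg/kg DES i.m. 18 h earlier. 1.0 uM cold OT defined non-specific binding.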

[1] = biological target: T3, Rat Kidney Medullary V2 Receptors (Rattus norvegicus, UniProt Q00788); experiment: Binding Assay to Rat Kidney Medullary V2 Receptors; settings: for pIC50: rat kidney medulla membranes, read-out: V2 IC50; for inhibition at 10 µM: rat
T3 construct: Medullary tissues from rat kidneys are dissected out; from tissue; host or cells: rat kidney medulla membranes
How it was run: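 IC50 derived from competition curves; bound tritium counted by liquid scintillation after filtration. Rat medullary kidney membranes (Tris-HCl pH 7.4, BSA, PMSF) were incubated 120 min to equilibrium with radioligand and test compound (added in 50% DMSO). Nonspecific binding: 1.0 μM unlabeled ligand.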

Vasopressin V1 = Vasopressin V1 Antagonist Activity in Conscious Rats (vasopressin vasopressor response); type: in vivo, rat
How it was run: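 Conscious rats are restrained supine, and under local 2% procaine a PE 10/20 cannula is passed through the ventral caudal tail artery into the lower abdominal aorta. The caudal vein is cannulated for intravenous dosing. Blood pressure is recorded with a Statham P23Db transducer, and vasopressin injections are repeated after compound dosing. Percent antagonism is calculated against the pre-drug vasopressor response taken as 100%.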

T3 sequence (Q00788 whole entry): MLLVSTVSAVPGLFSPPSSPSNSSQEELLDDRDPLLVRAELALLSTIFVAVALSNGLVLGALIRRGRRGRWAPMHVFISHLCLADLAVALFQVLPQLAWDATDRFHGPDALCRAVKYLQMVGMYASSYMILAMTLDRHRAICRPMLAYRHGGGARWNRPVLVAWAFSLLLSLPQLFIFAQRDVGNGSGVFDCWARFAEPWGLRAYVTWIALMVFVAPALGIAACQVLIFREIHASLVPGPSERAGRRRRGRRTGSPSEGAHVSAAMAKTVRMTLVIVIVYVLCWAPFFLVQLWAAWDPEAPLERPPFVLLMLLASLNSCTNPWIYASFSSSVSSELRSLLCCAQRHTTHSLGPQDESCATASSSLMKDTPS
T1 sequence (P30560 whole entry): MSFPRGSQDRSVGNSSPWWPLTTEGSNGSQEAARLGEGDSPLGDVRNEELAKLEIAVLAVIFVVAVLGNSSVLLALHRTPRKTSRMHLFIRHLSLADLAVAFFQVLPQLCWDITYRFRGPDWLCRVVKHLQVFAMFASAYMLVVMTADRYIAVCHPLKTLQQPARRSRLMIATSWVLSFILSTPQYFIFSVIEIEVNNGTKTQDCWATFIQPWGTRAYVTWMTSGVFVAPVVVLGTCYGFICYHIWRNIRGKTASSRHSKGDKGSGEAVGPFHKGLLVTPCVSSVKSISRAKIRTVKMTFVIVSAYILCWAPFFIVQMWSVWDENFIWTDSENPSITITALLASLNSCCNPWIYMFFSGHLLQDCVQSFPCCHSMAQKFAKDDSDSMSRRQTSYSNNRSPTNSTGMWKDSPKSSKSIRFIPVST

CN(C)CCSC(C(=O)Nc1ccc(C(=O)N2Cc3cccn3Cc3ccccc32)cc1)c1ccccc1 (stereo not drawn) [Example 584, α-[[2-(Dimethylamino)ethyl]thio]-N-[4-(5H-pyrrolo[2,1-c][1,4]benzodiazepin-10(11H)-ylcarbonyl)phenyl]benzeneacetamide]
pIC50 (Rat Hepatic V1 Receptors): 5.92
Osmolality (Vasopressin V2): 1718 mOsm/kg
Urine Volume (Vasopressin V2): 2.5 ml/4 hrs
inhibition at 10 µM (oxytocin receptors): 26%
pIC50 [1]: 6.32

Cc1ccccc1CC(=O)Nc1ccc(C(=O)N2Cc3cccn3-c3ccccc32)cc1 [Example 36, N-[4-(pyrrolo[1,2-a]quinoxalin-5(4H)-ylcarbonyl)phenyl]-2-methylbenzene-acetamide]
pIC50 (Rat Hepatic V1 Receptors): 7.00
pIC50 (oxytocin receptors): 5.61
inhibition at 10 µM (oxytocin receptors): 67%
pIC50 [1]: 7.27
Max. % Inhibition (Vasopressin V1; 30 mg/kg i.v.): 71%
Time (of max. % inhibition) (Vasopressin V1; 30 mg/kg i.v.): 60 min

O=C(Nc1ccc(C(=O)N2Cc3ccc(CN4CCCC4)n3Cc3ccccc32)cc1)c1ccc(Cl)cc1Cl [Example 665, N-[4-[[3-(1-pyrrolidinylmethyl)-5H-pyrrolo[2,1-c][1,4]benzodiazepin-10(11H)-yl]carbonyl]phenyl)-2,4-dichlorobenzamide]
pIC50 (Rat Hepatic V1 Receptors): 7.25
pIC50 (oxytocin receptors): 6.00
inhibition at 10 µM (oxytocin receptors): 97%
pIC50 [1]: 7.41

CCOC(=O)c1ccc2c(c1)N(C(=O)c1ccc(NC(=O)c3ccccc3C)cc1)Cc1cccn1C2 [Example 676, Ethyl 10,11-Dihydro-10-[4-[(2-methylbenzoyl)amino]benzoyl]-5H-pyrrolo[2,1-c][1,4]benzodiazepin-8-carboxylate]
inhibition at 10 µM (Rat Hepatic V1 Receptors): 41%
inhibition at 10 µM (oxytocin receptors): 32%
inhibition at 10 µM [1]: 89%

CCOC(=O)c1ccc2n1Cc1ccccc1N(C(=O)c1ccc(NC(=O)c3ccc(Cl)cc3Cl)c(C)c1)C2 [Example 592, Ethyl 10-[4-[(2,4-dichlorobenzoyl)amino]-3-methylbenzoyl]-10,11-dihydro-5H-pyrrolo[2,1-c][1,4]benzodiazepine-3-carboxylate]
pIC50 (Rat Hepatic V1 Receptors): 5.48
inhibition at 10 µM (oxytocin receptors): 41%
pIC50 [1]: 6.62
Max. % Inhibition (Vasopressin V1; 30 mg/kg i.v.): 37%
Time (of max. % inhibition) (Vasopressin V1; 30 mg/kg i.v.): 90 min

Cc1ccccc1C(=O)Nc1ccc(C(=O)N2CCc3nncn3-c3ccccc32)cc1 [Example 486, N-[4-[(4,5-Dihydro-6H-[1,2,4]triazolo[4,3-a][1,5]-benzodiazepin-6-yl)carbonyl)phenyl]-2-methylbenzoate]
inhibition at 10 µM (Rat Hepatic V1 Receptors): 39%
inhibition at 10 µM (oxytocin receptors): 18%
inhibition at 10 µM [1]: 77%

CN(C)C(C(=O)Nc1ccc(C(=O)N2Cc3cccn3Cc3ccccc32)cc1)c1ccccc1 (stereo not drawn) [Example 586, α-(Dimethylamino)-N-[4-(5H-pyrrolo[2,1-c][1,4]benzodiazepin-10(11H)-ylcarbonyl)phenyl]benzeneacetamide]
pIC50 (Rat Hepatic V1 Receptors): 6.35
Osmolality (Vasopressin V2): 1196 mOsm/kg
Urine Volume (Vasopressin V2): 4.3 ml/4 hrs
pIC50 (oxytocin receptors): 5.33
inhibition at 10 µM (oxytocin receptors): 61%
pIC50 [1]: 6.64

O=C(CCl)Nc1ccc(C(=O)N2Cc3cccn3Cc3ccccc32)cc1 [Example 589, 2-Chloro-N-[4-(5H-pyrrolo[2,1-c][1,4]benzodiazepin-10(11H) -ylcarbonyl)phenyl]acetamide]
inhibition at 10 µM (Rat Hepatic V1 Receptors): 91%
pIC50 (oxytocin receptors): 5.54
inhibition at 10 µM (oxytocin receptors): 79%
inhibition at 10 µM [1]: 82%

O=C(Nc1ccc(C(=O)N2Cc3ccc(C(=O)C(Cl)(Cl)Cl)n3Cc3ccccc32)cc1)c1ccc(Cl)cc1Cl [Example 598, N-[4-[[3-(Trichloroacetyl)-5H-pyrrolo[2,1-c][1,4]benzodiazepin-10(11H) -yl]carbonyl]phenyl]-2,4-dichlorobenzamide]
inhibition at 10 µM (Rat Hepatic V1 Receptors): 58%
inhibition at 10 µM (oxytocin receptors): 2%
inhibition at 10 µM [1]: 93%

CN(C)Cc1ccc2n1Cc1ccccc1N(C(=O)c1ccc(NC(=O)c3ccc(Cl)cc3Cl)cc1)C2 [Example 664]
pIC50 (Rat Hepatic V1 Receptors): 6.92
pIC50 (oxytocin receptors): 5.85
inhibition at 10 µM (oxytocin receptors): 95%
pIC50 [1]: 7.32

O=C(c1ccc(NP(=O)(c2ccccc2)c2ccccc2)cc1)N1Cc2cccn2Cc2ccccc21 [Example 491, 10-[4-[(Diphenylphosphinyl)amino]benzoyl]-10,11-dihydro-5H-pyrrolo-[2,1-c][1,4]benzodiazepine]
inhibition at 10 µM (Rat Hepatic V1 Receptors): 82%
inhibition at 10 µM (oxytocin receptors): 46%
inhibition at 10 µM [1]: 83%

Cc1cc(C(=O)N2Cc3cccn3Cc3ccccc32)ccc1NC(=O)c1ccccc1C [Example 96, N-[4-(5H-pyrrolo[2,1-c][1,4]benzodiazepin-10(11H)-ylcarbonyl)-2-methylphenyl]-2-methylbenzamide]
pIC50 (Rat Hepatic V1 Receptors): 7.25
pIC50 (oxytocin receptors): 5.92
inhibition at 10 µM (oxytocin receptors): 94%
pIC50 [1]: 7.96

O=C(Nc1ccc(C(=O)N2Cc3cccn3Cc3ccccc32)cc1)C(Cl)c1ccccc1 (stereo not drawn) [Example 583, α-Chloro-N-[4-(5H-pyrrolo[2,1-c][1,4]benzodiazepin-10(11H)-ylcarbonyl)phenyl]benzeneacetamide]
pIC50 (Rat Hepatic V1 Receptors): 7.27
pIC50 (oxytocin receptors): 5.40
inhibition at 10 µM (oxytocin receptors): 61%
pIC50 [1]: 7.57

O=C(Nc1ccc(C(=O)N2Cc3ccc(C(=O)C(Cl)(Cl)Cl)n3Cc3ccccc32)cc1)c1ccccc1C(F)(F)F [Example 597]
inhibition at 10 µM (Rat Hepatic V1 Receptors): 100%
Osmolality (Vasopressin V2): 1250 mOsm/kg
Urine Volume (Vasopressin V2): 5.3 ml/4 hrs
inhibition at 10 µM (oxytocin receptors): 42%
inhibition at 10 µM [1]: 97%

Cc1cc(C(=O)N2Cc3cccn3Cc3ccccc32)cc(C)c1NC(=O)c1ccc(Cl)cc1Cl [Example 473]
inhibition at 10 µM (Rat Hepatic V1 Receptors): 90%
Osmolality (Vasopressin V2): 1493 mOsm/kg
Urine Volume (Vasopressin V2): 2.3 ml/4 hrs
inhibition at 10 µM (oxytocin receptors): 20%
inhibition at 10 µM [1]: 56%

Cc1cccc(C(=O)Nc2ccc(C(=O)N3Cc4cccn4-c4ccccc43)cc2)c1C [Example 21, N-[4-(pyrrolo[1,2-a]quinoxalin-5(4H)-ylcarbonyl)phenyl]-2,3-dimethyl-benzamide]
pIC50 (Rat Hepatic V1 Receptors): 6.03
pIC50 (oxytocin receptors): 5.61
inhibition at 10 µM (oxytocin receptors): 67%
pIC50 [1]: 7.06

Cc1ccccc1C(=O)Nc1ccc(C(=O)N2CCc3cccn3-c3ccccc32)cc1 [Example 297]
pIC50 (Rat Hepatic V1 Receptors): 6.57
Osmolality (Vasopressin V2): 796 mOsm/kg
Urine Volume (Vasopressin V2): 7 ml/4 hrs
pIC50 (oxytocin receptors): 5.40
inhibition at 10 µM (oxytocin receptors): 76%
pIC50 [1]: 7.48

O=C(Nc1ccc(C(=O)N2Cc3cccn3Cc3ccccc32)cc1)c1cccc(Cl)c1Cl [Example 468, N-[4-(5H-pyrrolo[2,1-c][1,4]benzodiazepin-10(11H)-ylcarbonyl)phenyl]-2,3-dichlorobenzamide]
pIC50 (Rat Hepatic V1 Receptors): 7.57
pIC50 (oxytocin receptors): 6.59
inhibition at 10 µM (oxytocin receptors): 96%
pIC50 [1]: 7.54
Max. % Inhibition (Vasopressin V1; 10 mg/kg i.v.): 68%
Time (of max. % inhibition) (Vasopressin V1; 10 mg/kg i.v.): 30 min

O=Cc1ccc2n1Cc1ccccc1N(C(=O)c1ccc(NC(=O)c3ccc(Cl)cc3Cl)cc1)C2 [Example 580, 2,4-Dichloro-N-[4-[(3-formyl-5H-pyrrolo[2,1-c][1,4]benzodiazepin-10(11H)-yl)carbonyl]phenyl]benzamide]
pIC50 (Rat Hepatic V1 Receptors): 6.70
pIC50 (oxytocin receptors): 5.53
inhibition at 10 µM (oxytocin receptors): 79%
pIC50 [1]: 7.10
